Literature values in patent US12029723B2, “Compounds and forms of treatment for female sexual disorders” (GTO PHARMA, LLC., priority 2015, dated 2024).

Columns and labels:
[1] = tested on: pre-menopausal women with SIAD related disorders
liver = conditions: a person taking 400 mg daily in herbal substitutes for weight loss

Compound	share of women with the benefit ([1]; 100 mg daily for a minimum of 28 days)	effect on GPPD (vestibulodynia, dyspareunia) or FOD ([1]; in vivo)	median placebo-corrected increase in satisfying sexual events (SSEs) ([1]; median baseline about 2-3 SSEs per month, six month period)	sedation or hypotension-related adverse events ([1]; vs 9.4% placebo)	liver injury (liver)
O=c1[nH]c2ccccc2n1CCN1CCN(c2cccc(C(F)(F)F)c2)CC1 [Flibanserin, 2H-benzimidazol-2-one, 1,3-dihydro-1-[2-[4-[3(tri-fluoromethyl)phenyl]-1-piperazinyl]ethyl]]	18%	no therapeutic effect at all	0.5-1.0 SSEs per month	28.6%	
Epigallocatechin-3-gallate [EGCG]					acute but reversible liver failure
